The text below walks through data of ChEMBL document CHEMBL1143994, “New terpenoids from Maytenus apurimacensis as MDR reversal agents in the parasite Leishmania” (2008).

Common to all, as to assay type: functional
In test [1] the test system is Leishmania tropica. The test is described as follows: Growth inhibition of wild type Leishmania tropica LRC at 1 uM after 72 hrs by MTT assay relative to control. As to conditions: read-out: GI. (In general: Formazan colour is commonly taken as a measure of viable cells.)
The subject of test [2] is Leishmania tropica. The test is described as follows: Growth inhibition of wild type Leishmania tropica LRC at 7 uM after 72 hrs by MTT assay relative to control. As to conditions: read-out: GI.
The subject of test [3] is Leishmania tropica. The test is described as follows: Growth inhibition of multidrug resistant Leishmania tropica at 15 uM in presence of 150 uM daunomycin after 72 hrs by MTT assay relative to control.
Test [4] deals with Leishmania tropica. The test is described as follows: Growth inhibition of multidrug resistant Leishmania tropica at 7 uM in presence of 150 uM daunomycin after 72 hrs by MTT assay relative to control.
In test [5] the test system is Leishmania tropica. The test is described as follows: Growth inhibition of wild type Leishmania tropica LRC at 3 uM after 72 hrs by MTT assay relative to control. As to conditions: read-out: GI.
Test [6] has as its system Leishmania tropica. The test is described as follows: Growth inhibition of multidrug resistant Leishmania tropica at 1 uM in presence of 150 uM daunomycin after 72 hrs by MTT assay relative to control.
In test [7] the test system is Leishmania tropica. The test is described as follows: Growth inhibition of wild type Leishmania tropica LRC at 15 uM after 72 hrs by MTT assay relative to control. The note with it: read-out: GI.
The test system of test [8] is Leishmania tropica. The test is described as follows: Growth inhibition of multidrug resistant Leishmania tropica at 3 uM in presence of 150 uM daunomycin after 72 hrs by MTT assay relative to control.

Regarding `CC(=O)O[C@@H]1[C@@H]2[C@@H](OC(=O)c3cccnc3)[C@]3(OC2(C)C)[C@H](C)CC[C@H](OC(=O)c2ccccc2)[C@@]3(C)[C@@H]1OC(=O)c1ccccc1`, the inhibition of growth at 1 µM with Leishmania tropica [1] is 0%. For the same compound, the inhibition of growth at 7 µM in the test on Leishmania tropica [2] came out at 0.8%. The “growth inhibition (GI)” value turned out to be 96.1% in the test with Leishmania tropica [3], 59.2% in the test on Leishmania tropica [4], 8.6% in the test with Leishmania tropica [6] and 21.2% with Leishmania tropica [8]. The inhibition of growth at 3 µM in the test on Leishmania tropica [5] came out at 0%. Besides, the inhibition of growth at 15 µM in the test with Leishmania tropica [7] is 2.3%.

`CC(=O)O[C@@H]1[C@@H]2[C@@H](OC(=O)c3cccnc3)[C@@]3(OC2(C)C)[C@@](C)([C@@H](OC(=O)c2ccccc2)CC[C@@]3(C)O)[C@@H]1OC(=O)c1ccccc1`: the inhibition of growth at 1 µM in the test on Leishmania tropica [1] was determined as 0%. Besides, the inhibition of growth at 7 µM in the test on Leishmania tropica [2] was 0%. Moreover, the “growth inhibition (GI)” value came to 98.5% in the test on Leishmania tropica [3], 90.2% in the test with Leishmania tropica [4], 15.8% in the test with Leishmania tropica [6] and 62.8% in the test with Leishmania tropica [8]. In addition, the inhibition of growth at 3 µM with Leishmania tropica [5] was determined as 0%. In addition, the inhibition of growth at 15 µM in the test on Leishmania tropica [7] is 13.6%.
